Key:
[1] = Metabolic Stability in mouse liver microsome assessed as half life at […] measured upto 60 mins by HPLC-MS/MS analysis; type: ADME; details: liver microsomes
[2] = Metabolic Stability in mouse liver microsome assessed as microsomal intrinsic clearance at […] measured upto 60 mins by HPLC-MS/MS analysis; type: ADME; details: liver microsomes, read-out: CLH
[3] = Metabolic Stability in human liver microsome assessed as half life at […] measured upto 60 mins by HPLC-MS/MS analysis; type: ADME; details: liver microsomes
[4] = Metabolic Stability in human liver microsome assessed as microsomal intrinsic clearance at […] measured upto 60 mins by HPLC-MS/MS analysis; type: ADME; details: liver microsomes, read-out: CLH
[5] = target: T1, Nuclear receptor ROR-gamma (Homo sapiens, UniProt P51449); test: Agonist activity at biotinylated APC-labeled RORgammat LBD (unknown origin) assessed as increase in recruitment of europium-labeled SRC1 coactivator peptide incubated for 1 hr by dual FRET assay
T1 sequence (P51449 whole entry): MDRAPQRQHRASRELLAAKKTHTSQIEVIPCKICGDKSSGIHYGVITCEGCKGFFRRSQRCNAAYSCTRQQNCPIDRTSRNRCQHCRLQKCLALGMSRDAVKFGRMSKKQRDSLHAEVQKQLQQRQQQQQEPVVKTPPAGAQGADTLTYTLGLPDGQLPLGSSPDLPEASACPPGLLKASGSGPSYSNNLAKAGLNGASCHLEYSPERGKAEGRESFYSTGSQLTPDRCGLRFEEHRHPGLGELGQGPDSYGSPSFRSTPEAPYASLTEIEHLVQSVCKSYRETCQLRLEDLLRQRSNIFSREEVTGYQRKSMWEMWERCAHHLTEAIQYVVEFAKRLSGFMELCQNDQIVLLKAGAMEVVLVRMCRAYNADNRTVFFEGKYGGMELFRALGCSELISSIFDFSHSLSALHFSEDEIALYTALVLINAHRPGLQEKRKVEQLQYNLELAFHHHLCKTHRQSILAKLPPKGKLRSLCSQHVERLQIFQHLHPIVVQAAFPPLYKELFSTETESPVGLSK

[6] = target: T2, Nuclear receptor ROR-alpha (Homo sapiens, UniProt P35398); test: Agonist activity at human Gal4-fused RORalpha expressed in HEK293T cells assessed as luciferase activity incubated for 16 to 20 hrs by Luciferase reporter gene assay; type: cell-based
T2 sequence (P35398 whole entry): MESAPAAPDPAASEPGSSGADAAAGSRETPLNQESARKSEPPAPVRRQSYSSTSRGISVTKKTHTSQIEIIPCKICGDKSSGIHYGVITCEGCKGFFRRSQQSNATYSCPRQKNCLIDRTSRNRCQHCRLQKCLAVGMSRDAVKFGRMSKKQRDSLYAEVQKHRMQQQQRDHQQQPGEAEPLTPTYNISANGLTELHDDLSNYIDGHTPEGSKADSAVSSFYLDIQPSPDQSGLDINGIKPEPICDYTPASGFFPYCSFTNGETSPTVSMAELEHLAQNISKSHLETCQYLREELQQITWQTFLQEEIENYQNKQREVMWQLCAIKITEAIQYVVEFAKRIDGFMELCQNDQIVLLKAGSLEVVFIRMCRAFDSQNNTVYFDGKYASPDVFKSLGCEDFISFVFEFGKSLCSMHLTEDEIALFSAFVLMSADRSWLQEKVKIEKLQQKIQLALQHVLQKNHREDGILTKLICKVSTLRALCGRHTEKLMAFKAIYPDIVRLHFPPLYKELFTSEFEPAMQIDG

[7] = target: T3, Nuclear receptor ROR-alpha (Homo sapiens) (UniProt P35398); test: Agonist activity at human Gal4-fused RORalpha expressed in HEK293T cells assessed as luciferase activity by measuring maximal response incubated for 16 to 20 hrs by Luciferase reporter gene assay relative to control; type: cell-based; details: filed as agonist, time 16-20 hrs
T3 sequence (whole entry): T2 sequence (P35398 whole entry)

[8] = target: T4, Nuclear receptor ROR-beta (Homo sapiens, UniProt Q92753); test: Agonist activity at human Gal4-fused RORbeta expressed in HEK293T cells assessed as luciferase activity incubated for 16 to 20 hrs by Luciferase reporter gene assay; type: cell-based
T4 sequence (Q92753 whole entry): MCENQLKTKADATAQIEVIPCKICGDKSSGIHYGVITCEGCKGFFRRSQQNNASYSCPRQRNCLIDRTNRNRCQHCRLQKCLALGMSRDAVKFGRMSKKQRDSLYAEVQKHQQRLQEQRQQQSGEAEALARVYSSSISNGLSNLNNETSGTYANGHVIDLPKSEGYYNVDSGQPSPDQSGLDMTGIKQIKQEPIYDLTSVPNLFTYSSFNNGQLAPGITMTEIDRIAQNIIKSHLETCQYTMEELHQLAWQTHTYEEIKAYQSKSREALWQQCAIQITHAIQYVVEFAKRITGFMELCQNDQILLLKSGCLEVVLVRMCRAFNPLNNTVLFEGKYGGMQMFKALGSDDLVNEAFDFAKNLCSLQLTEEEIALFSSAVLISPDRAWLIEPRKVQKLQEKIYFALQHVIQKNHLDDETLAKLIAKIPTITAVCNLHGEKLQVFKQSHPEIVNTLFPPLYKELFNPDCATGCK

[9] = target: T5, Nuclear receptor ROR-beta (Homo sapiens) (UniProt Q92753); test: Agonist activity at human Gal4-fused RORbeta expressed in HEK293T cells assessed as luciferase activity by measuring maximal response incubated for 16 to 20 hrs by Luciferase reporter gene assay relative to control; type: cell-based; details: filed as agonist, time 16-20 hrs
T5 sequence (whole entry): T4 sequence (Q92753 whole entry)

B16-F10 = test: Antitumor activity against mouse B16-F10 cells xenografted in C57BL/6 mouse assessed as tumor growth inhibition at 50 mg/kg,ip administrated on day 7 for 8 days relative to control; type: functional; details: B16-F10, 192 h, time 8 day, read-out: TGI
cells = details: Mus musculus, CD4+ T cell, 96 h
Description: Induction of Th17 cells differentiation in mouse CD4+ T cell assessed as increase in CD4+ IL-17A production incubated for 4 days by flow cytometry analysis

in vivo = details: CD-1, mouse, po, 10 mg/kg
[10] = target: T1, Nuclear receptor ROR-gamma; test: Inverse agonist activity at biotinylated APC-labeled RORgammat LBD (unknown origin) assessed as inhibition of europium-labeled SRC1 coactivator peptide recruitment incubated for 1 hr by dual FRET assay

CCC(C)Cc1ccc(-c2c(Cl)cc(NC(=O)Cc3ccc(S(=O)(=O)CC)cc3)cc2Cl)cc1C#N (stereo unspecified)
half-life [1]: 78.5 min | microsomal CLint [2]: 17.6 µL/min/mg | half-life [3]: 16.9 min | microsomal CLint [4]: 81.9 µL/min/mg

CCS(=O)(=O)c1ccc(CNC(=O)c2cc(Cl)c(-c3ccc(CC(C)C)c(C#N)c3)c(Cl)c2)cc1
half-life [1]: 28 min | microsomal CLint [2]: 49.5 µL/min/mg | half-life [3]: < 2.5 min | microsomal CLint [4]: > 554 µL/min/mg

CCS(=O)(=O)c1ccc(CC(=O)Nc2cc(Cl)c(-c3ccc(CC4CCCC4)c(C#N)c3)c(Cl)c2)cc1
EC50 [5]: 14.3 nM

CC(C)(C[C@H]1CN(S(=O)(=O)c2cccc(C(F)(F)F)c2)c2cc(-c3cc(F)cc(OC(F)F)c3)ccc2O1)C(=O)O [CINTIRORGON]
EC50 [6]: 2920 nM | %max [7]: 67.3% | EC50 [8]: 5430 nM | %max [9]: 100% | inhibition in vivo at 50 mg/kg (B16-F10): 45.3% | EC50 (cells): 9.8 nM | AUC(0-inf) at 24 h (in vivo): 3240 ng·h/mL

CCS(=O)(=O)c1ccc(CC(=O)Nc2cc(Cl)c(-c3ccccc3)c(Cl)c2)cc1
XC50 [10]: 9.2 nM

CCS(=O)(=O)c1ccc(CNC(=O)Nc2cc(Cl)c(-c3ccc(CC(C)C)c(C#N)c3)c(Cl)c2)cc1
half-life [1]: 50.6 min | microsomal CLint [2]: 27.4 µL/min/mg | half-life [3]: 3.9 min | microsomal CLint [4]: 354 µL/min/mg

CCS(=O)(=O)c1ccc(CC(=O)Nc2cc(Cl)c(-c3ccc(CC(C)C)c(F)c3)c(Cl)c2)cc1
EC50 [5]: 15.2 nM

CCS(=O)(=O)c1ccc(CC(=O)Nc2cc(Cl)c(-c3ccc(CC(C)C)c(C#N)c3)c(Cl)c2)cc1
EC50 [5]: 12.2 nM | half-life [1]: 37.7 min | microsomal CLint [2]: 36.7 µL/min/mg | half-life [3]: 2.6 min | microsomal CLint [4]: 533 µL/min/mg | EC50 (cells): 13 nM

CCS(=O)(=O)c1ccc(CC(=O)Nc2cc(Cl)c(-c3ccc(CC(C)C)c(C#N)c3)c(Cl)c2)nc1
half-life [1]: 37.4 min | microsomal CLint [2]: 37 µL/min/mg | half-life [3]: 9.3 min | microsomal CLint [4]: 150 µL/min/mg

CCS(=O)(=O)c1ccc(CC(=O)Nc2cc(Cl)c(-c3ccc(CN(C)C)c(C#N)c3)c(Cl)c2)cc1
half-life [1]: 12.9 min | microsomal CLint [2]: 108 µL/min/mg

CCS(=O)(=O)c1ccc(CC(=O)Nc2cc(Cl)c(-c3ccc(C=C4CCC4)c(C#N)c3)c(Cl)c2)cc1
EC50 [5]: 20.7 nM

CCS(=O)(=O)c1ccc(CC(=O)Nc2cc(Cl)c(-c3ccc(CC(C)C)cc3)c(Cl)c2)cc1
EC50 [5]: 12.7 nM

Reference: ChEMBL document CHEMBL5375953, “Discovery of Biaryl Amide Derivatives as Potent, Selective, and Orally Bioavailable RORγt Agonists for Cancer Immunotherapy” (J Med Chem, 2023)
